The values below come from US12209102B2, “Heterocyclic compounds and uses thereof” (Kumquat Biosciences Inc., priority 2022, dated 2025).

For one experiment, the system named is A549 cells. Kind of experiment: Ras cellular assay, growth of cells with K-Ras G12S mutation (CellTiter-Glo). It is filed as cell-based. The following applies: Homo sapiens, cell growth, Example 9, G12S mutation, read-out: IC50 against A549 cells. Put shortly: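 A549 cells (K-Ras G12S) in RPMI-1640 with 10% heat-inactivated FBS, seeded e.g. 800 per well in standard or ultra-low-attachment 384-well plates, treated next day with a dilution series (e.g. 10-point, 3-fold). Viability by CellTiter-Glo luminescence about 6 days later; IC50 from four-parameter fit.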

A further experiment concerns GP2D cells. Kind of experiment: Ras cellular assay, growth of cells with K-Ras G12D mutation (CellTiter-Glo). Conditions: cell growth, Example 9, G12D mutation, read-out: IC50 against GP2D cells. It is filed as cell-based. For orientation: Cellular ATP, detected with luciferase, serves as a proxy for viable cell number.
The next experiment has as its target T1, K-Ras G12S (Homo sapiens, UniProt P01116, G12S).
T1 construct: made in house; host or cells: E. coli BL21 (DE3)
The experiment in a line: HTRF resonance energy transfer assay, K-Ras G12S / SOS1 interaction. It is filed as biochemical. The following applies: HTRF assay of Example 5; read-out: IC50 against K-Ras G12S. Put shortly:
(§1)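 Read-out: HTRF 665/620 nm ratio (excitation 337 nm) after roughly 10 min or longer incubation, used to derive IC50. Donor anti-GST-Eu on GST-K-Ras; acceptor anti-6His-XL665 on His-hSOS1. Duplicate dose series from 10 μM down to 0.01 μM.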
(TR-FRET usually uses a lanthanide donor and a delayed reading to cut background.)

Another experiment relates to SW620 cells. Kind of experiment: Ras cellular assay, growth of cells with K-Ras G12V mutation (CellTiter-Glo). It is filed as cell-based. The following applies: Homo sapiens, SW-620; cell growth, Example 9, G12V mutation; read-out: IC50 against SW620 cells. Put shortly:
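SW620 (K-Ras G12V) cells, e.g. 800/well in RPMI-1640 with 10% heat-inactivated FBS on standard or ultra-low attachment plates, were dosed the day after plating with e.g. a 10-point 3-fold series. Viability by CellTiter-Glo luminescence about 6 days later; IC50 from four-parameter fit.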

A further experiment addresses T2, K-Ras WT (Homo sapiens, UniProt P01116).
T2 construct: made in house; host or cells: E. coli BL21 (DE3)
Kind of experiment: HTRF resonance energy transfer assay, K-Ras WT / SOS1 interaction. It is filed as biochemical. Conditions: HTRF assay of Example 5; read-out: IC50 against K-Ras WT. Put shortly:
as §1

Another experiment deals with T3, K-Ras G12V (Homo sapiens, UniProt P01116, G12V).
T3 construct: made in house; host or cells: E. coli BL21 (DE3)
Kind of experiment: HTRF resonance energy transfer assay, K-Ras G12V / SOS1 interaction. It is filed as biochemical. The following applies: HTRF assay of Example 5; read-out: IC50 against K-Ras G12V. Put shortly:
as §1

In another experiment the target is T4, K-Ras G12D (Homo sapiens, UniProt P01116, G12D).
T4 construct: made in house; host or cells: E. coli BL21 (DE3)
The experiment in a line: HTRF resonance energy transfer assay, K-Ras G12D / SOS1 interaction. The following applies: HTRF assay of Example 5; read-out: IC50 against K-Ras G12D. It is filed as biochemical. Put shortly: as §1

T3 sequence (P01116 1-188 isoform P01116-2 G12V): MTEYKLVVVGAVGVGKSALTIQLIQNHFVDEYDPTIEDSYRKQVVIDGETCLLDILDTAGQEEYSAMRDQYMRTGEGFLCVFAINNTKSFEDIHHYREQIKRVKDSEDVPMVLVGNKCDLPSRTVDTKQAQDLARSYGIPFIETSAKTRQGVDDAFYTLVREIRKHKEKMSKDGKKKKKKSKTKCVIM
T4 sequence (P01116 1-188 isoform P01116-2 G12D): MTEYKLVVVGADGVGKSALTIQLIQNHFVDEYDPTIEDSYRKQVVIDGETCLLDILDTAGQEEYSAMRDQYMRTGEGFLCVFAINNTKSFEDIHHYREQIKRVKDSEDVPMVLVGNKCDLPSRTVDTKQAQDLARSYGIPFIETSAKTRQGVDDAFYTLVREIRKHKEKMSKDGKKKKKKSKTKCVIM
T2 sequence (P01116 1-188 isoform P01116-2): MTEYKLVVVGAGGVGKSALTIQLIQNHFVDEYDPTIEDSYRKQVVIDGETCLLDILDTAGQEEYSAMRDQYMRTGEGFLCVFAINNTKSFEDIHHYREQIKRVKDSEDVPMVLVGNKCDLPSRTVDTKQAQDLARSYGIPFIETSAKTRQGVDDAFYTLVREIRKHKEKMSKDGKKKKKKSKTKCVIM
T1 sequence (P01116 1-188 isoform P01116-2 G12S): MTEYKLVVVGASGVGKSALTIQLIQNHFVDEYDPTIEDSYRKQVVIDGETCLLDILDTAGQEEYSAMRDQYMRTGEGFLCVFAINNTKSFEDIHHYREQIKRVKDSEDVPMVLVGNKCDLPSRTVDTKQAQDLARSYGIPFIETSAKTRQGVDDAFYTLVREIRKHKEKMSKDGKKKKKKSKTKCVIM

Consider `N#Cc1c(N)sc2c(F)ccc(-c3c(Cl)c4c5c(nc(OC[C@@]67CCCN6C[C@H](F)C7)nc5c3F)N(C3CCOC3)CC(CF)O4)c12` (stereo partly drawn) [Compound 628, 2-amino-4-(8-chloro-10-fluoro-6-(fluoromethyl)-2-(((2R,7aS)-2-fluorotetrahydro-1H-pyrrolizin-7a(5H)-yl)methoxy)-4-(tetrahydrofuran-3-yl)-5,6-dihydro-4H-[1,4]oxazepino[5,6,7-de]quinazolin-9-yl)-7-fluorobenzo[b]thiophene-3-carbonitrile], for which the IC50 with A549 cells was under 5000 nM; with GP2D cells it was under 500 nM; at K-Ras G12S, under 100 nM; with SW620 cells, under 5000 nM; on K-Ras WT, under 100 nM; on K-Ras G12V, under 100 nM. The IC50 at K-Ras G12D was under 100 nM.
As to `CNC(=O)C1CCC(N2CCOc3c(Cl)c(-c4ccc(F)c5sc(N)c(C#N)c45)c(F)c4nc(OC[C@@]56CCCN5C[C@H](F)C6)nc2c34)C1` (stereo partly drawn) [Compound 633, 3-(9-(2-amino-3-cyano-7-fluorobenzo[b]thiophen-4-yl)-8-chloro-10-fluoro-2-(((2R,7aS)-2-fluorotetrahydro-1H-pyrrolizin-7a(5H)-yl)methoxy)-5,6-dihydro-4H-[1,4]oxazepino[5,6,7-de]quinazolin-4-yl)-N-methylcyclopentane-1-carboxamide], the IC50 is under 5000 nM in the experiment with A549 cells; under 500 nM in the experiment with GP2D cells; under 100 nM on K-Ras G12S; under 5000 nM in the experiment on SW620 cells; under 100 nM at K-Ras WT; under 100 nM on K-Ras G12V. Also, the IC50 on K-Ras G12D was under 100 nM.
For `Cn1ncc(C#N)c1CN1CCOc2c(Cl)c(-c3ccc(F)c4sc(N)c(C#N)c34)c(F)c3nc(OC[C@@]45CCCN4C[C@H](F)C5)nc1c23` [Compound 641, 5-((9-(2-amino-3-cyano-7-fluorobenzo[b]thiophen-4-yl)-8-chloro-10-fluoro-2-(((2R,7aS)-2-fluorotetrahydro-1H-pyrrolizin-7a(5H)-yl)methoxy)-5,6-dihydro-4H-[1,4]oxazepino[5,6,7-de]quinazolin-4-yl)methyl)-1-methyl-1H-pyrazole-4-carbonitrile], the IC50 in the experiment with A549 cells is under 5000 nM; in the experiment with GP2D cells, under 500 nM; on K-Ras G12S, under 100 nM; in the experiment with SW620 cells it was under 5000 nM; on K-Ras WT, under 100 nM; at K-Ras G12V it was under 100 nM. The IC50 on K-Ras G12D was under 100 nM.
`N#CCCN1CCOc2c(Cl)c(-c3ccc(F)c4sc(N)c(C#N)c34)c(F)c3nc(OC[C@@]45CCCN4C[C@H](F)C5)nc1c23` [Compound 648, 2-amino-4-(8-chloro-4-(2-cyanoethyl)-10-fluoro-2-(((2R,7aS)-2-fluorotetrahydro-1H-pyrrolizin-7a(5H)-yl)methoxy)-5,6-dihydro-4H-[1,4]oxazepino[5,6,7-de]quinazolin-9-yl)-7-fluorobenzo[b]thiophene-3-carbonitrile]: the IC50 in the experiment with A549 cells is under 5000 nM; in the experiment with GP2D cells, under 500 nM; at K-Ras G12S, under 100 nM; in the experiment on SW620 cells, under 5000 nM; at K-Ras WT, under 100 nM; on K-Ras G12V it was under 100 nM. Further, at K-Ras G12D, the IC50 was under 100 nM.
Take `N#Cc1c(N)sc2c(F)ccc(-c3c(Cl)c4c5c(nc(OC[C@@]67CCCN6C[C@H](F)C7)nc5c3F)N(C3CCN(C(=O)C(F)F)C3)CCO4)c12` (stereo partly drawn) [Compound 649, 2-amino-4-(8-chloro-4-(1-(2,2-difluoroacetyl)pyrrolidin-3-yl)-10-fluoro-2-(((2R,7aS)-2-fluorotetrahydro-1H-pyrrolizin-7a(5H)-yl)methoxy)-5,6-dihydro-4H-[1,4]oxazepino[5,6,7-de]quinazolin-9-yl)-7-fluorobenzo[b]thiophene-3-carbonitrile]: the IC50 was under 5000 nM in the experiment with A549 cells; under 500 nM in the experiment with GP2D cells; under 100 nM on K-Ras G12S; under 5000 nM in the experiment with SW620 cells; under 100 nM at K-Ras WT; under 100 nM on K-Ras G12V. For the same compound, the IC50 at K-Ras G12D is under 100 nM.
With `N#Cc1c(N)sc2c(F)ccc(-c3c(Cl)c4c5c(nc(OC[C@@]67CCCN6C[C@H](F)C7)nc5c3F)N(C3C5CC3N(C=O)C5)CCO4)c12` (stereo partly drawn) [Compound 654, 2-amino-4-(8-chloro-10-fluoro-2-(((2R,7aS)-2-fluorotetrahydro-1H-pyrrolizin-7a(5H)-yl)methoxy)-4-(2-formyl-2-azabicyclo[2.1.1]hexan-5-yl)-5,6-dihydro-4H-[1,4]oxazepino[5,6,7-de]quinazolin-9-yl)-7-fluorobenzo[b]thiophene-3-carbonitrile], the IC50 was under 5000 nM in the experiment with A549 cells; under 500 nM in the experiment with GP2D cells; under 100 nM at K-Ras G12S; under 5000 nM in the experiment with SW620 cells; under 100 nM at K-Ras WT; under 100 nM on K-Ras G12V. The IC50 on K-Ras G12D is under 100 nM.
Consider `C#Cc1c(F)ccc2cc(O)cc(-c3nc4c5c(nc(OC[C@@]67CCCN6C[C@H](F)C7)nc5c3F)N(C3CCCOC3)CCO4)c12` (stereo partly drawn) [Compound 661, 5-ethynyl-6-fluoro-4-(4-fluoro-2-(((2R,7aS)-2-fluorotetrahydro-1H-pyrrolizin-7a(5H)-yl)methoxy)-10-(tetrahydro-2H-pyran-3-yl)-9,10-dihydro-8H-7-oxa-1,3,6,10-tetraazacyclohepta[de]naphthalen-5-yl)naphthalen-2-ol], for which the IC50 with A549 cells was under 5000 nM; in the experiment on GP2D cells, under 500 nM; on K-Ras G12S it was under 100 nM; in the experiment on SW620 cells it was under 5000 nM; at K-Ras WT it was under 100 nM; on K-Ras G12V it was under 100 nM. Also, the IC50 on K-Ras G12D is under 100 nM.
With `C[C@H]1CN(CCC(F)F)c2nc(OC[C@@]34CCCN3C[C@H](F)C4)nc3c(F)c(-c4ccc(F)c5sc(N)c(C#N)c45)c(Cl)c(c23)O1` [Compound 664, 2-amino-4-((6S)-8-chloro-4-(3,3-difluoropropyl)-10-fluoro-2-(((2R,7aS)-2-fluorotetrahydro-1H-pyrrolizin-7a(5H)-yl)methoxy)-6-methyl-5,6-dihydro-4H-[1,4]oxazepino[5,6,7-de]quinazolin-9-yl)-7-fluorobenzo[b]thiophene-3-carbonitrile], the IC50 with A549 cells is under 5000 nM; in the experiment on GP2D cells, under 500 nM; on K-Ras G12S, under 100 nM; in the experiment with SW620 cells, under 5000 nM; at K-Ras WT, under 100 nM; at K-Ras G12V it was under 100 nM. Further, the IC50 at K-Ras G12D is under 100 nM.
As to `C[C@H]1CN(C2CCN(C(=O)C(F)F)C2)c2nc(OC[C@@]34CCCN3C[C@H](F)C4)nc3c(F)c(-c4ccc(F)c5sc(N)c(C#N)c45)c(Cl)c(c23)O1` (stereo partly drawn) [Compound 665, 2-amino-4-((6S)-8-chloro-4-(1-(2,2-difluoroacetyl)pyrrolidin-3-yl)-10-fluoro-2-(((2R,7aS)-2-fluorotetrahydro-1H-pyrrolizin-7a(5H)-yl)methoxy)-6-methyl-5,6-dihydro-4H-[1,4]oxazepino[5,6,7-de]quinazolin-9-yl)-7-fluorobenzo[b]thiophene-3-carbonitrile], the IC50 with A549 cells is under 5000 nM; in the experiment with GP2D cells, under 500 nM; at K-Ras G12S, under 100 nM; with SW620 cells, under 5000 nM; on K-Ras WT, under 100 nM; at K-Ras G12V it was under 100 nM. At K-Ras G12D, the IC50 was under 100 nM.
`N#Cc1c(N)sc2c(F)ccc(-c3c(Cl)c4c5c(nc(OC[C@@]67CCCN6C[C@H](F)C7)nc5c3F)N(CC3(O)CCC3)CCO4)c12` [Compound 667, 2-amino-4-(8-chloro-10-fluoro-2-(((2R,7aS)-2-fluorotetrahydro-1H-pyrrolizin-7a(5H)-yl)methoxy)-4-((1-hydroxycyclobutyl)methyl)-5,6-dihydro-4H-[1,4]oxazepino[5,6,7-de]quinazolin-9-yl)-7-fluorobenzo[b]thiophene-3-carbonitrile]: the IC50 in the experiment on A549 cells is under 5000 nM; in the experiment on GP2D cells it was under 500 nM; on K-Ras G12S it was under 100 nM; in the experiment on SW620 cells it was under 5000 nM; at K-Ras WT it was under 100 nM; at K-Ras G12V, under 100 nM. In addition, the half-inhibitory concentration (IC50) on K-Ras G12D is under 100 nM.
Turning to `COCC(C)N1CCOc2c(Cl)c(-c3ccc(F)c4sc(N)c(C#N)c34)c(F)c3nc(OC[C@@]45CCCN4C[C@H](F)C5)nc1c23` (stereo partly drawn) [Compound 670, 2-amino-4-(8-chloro-10-fluoro-2-(((2R,7aS)-2-fluorotetrahydro-1H-pyrrolizin-7a(5H)-yl)methoxy)-4-(1-methoxypropan-2-yl)-5,6-dihydro-4H-[1,4]oxazepino[5,6,7-de]quinazolin-9-yl)-7-fluorobenzo[b]thiophene-3-carbonitrile], the IC50 in the experiment on A549 cells was under 5000 nM; in the experiment with GP2D cells, under 500 nM; on K-Ras G12S it was under 100 nM; in the experiment on SW620 cells, under 5000 nM; at K-Ras WT, under 100 nM; on K-Ras G12V, under 100 nM. The IC50 at K-Ras G12D was under 100 nM.

What is called IC50 is the concentration at which inhibition is half-maximal.
